Laboratory results from PubChem BioAssay (NCI).
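Where inhibition never reached the appropriate level, the endpoint shown equals the highest concentration tested. Otherwise, values were interpolated linearly from a five-concentration, 48-hour dose response in 96-well plates. At the TGI there is no net growth.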

How the values were obtained:
Experiment in all cases: growth of human tumour cells (NCI), 48 h
[1] = test system: MDA-MB-231 breast
[2] = test system: MCF7 breast
[3] = test system: SK-MEL-5 melanoma
[4] = test system: ACHN renal
[5] = test system: UACC-257 melanoma
[6] = test system: TK-10 renal
[7] = test system: OVCAR-3 ovarian
[8] = test system: HS 578T breast
[9] = test system: T-47D breast
[10] = test system: OVCAR-5 ovarian
[11] = test system: RPMI-8226 leukemia
[12] = test system: SR leukemia
[13] = test system: UO-31 renal
[14] = test system: COLO 205 colon
[15] = test system: MALME-3M melanoma
[16] = test system: HOP-92 NSCLC
[17] = test system: MDA-MB-435
[18] = test system: SNB-19 CNS
[19] = test system: HCT-15 colon
[20] = test system: MDA-N
[21] = test system: NCI/ADR-RES ovarian
[22] = test system: HL-60(TB) leukemia
[23] = test system: IGROV1 ovarian
[24] = test system: SK-MEL-28 melanoma
[25] = test system: NCI-H460 lung
[26] = test system: MOLT-4 leukemia
[27] = test system: U251 CNS
[28] = test system: SNB-75 CNS
[29] = test system: A498 renal
[30] = test system: 786-0 renal
[31] = test system: UACC-62 melanoma
[32] = test system: HT29 colon
[33] = test system: KM12 colon
[34] = test system: SK-OV-3 ovarian
[35] = test system: A549 NSCLC
[36] = test system: NCI-H23 lung
[37] = test system: SN12C renal
[38] = test system: HCC-2998 colon
[39] = test system: SF-295 CNS
[40] = test system: RXF 393 renal
[41] = test system: CCRF-CEM leukemia
[42] = test system: OVCAR-8 ovarian
[43] = test system: DU-145 prostate
[44] = test system: OVCAR-4 ovarian
[45] = test system: HCT-116 colon
[46] = test system: PC-3 prostate
[47] = test system: K-562 leukemia
[48] = test system: NCI-H226 lung
[49] = test system: SF-268 CNS
[50] = test system: NCI-H522 lung
[51] = test system: LOX IMVI melanoma
[52] = test system: M14 melanoma
[53] = test system: SF-539 CNS
[54] = test system: SW-620 colon
[55] = test system: EKVX NSCLC
[56] = test system: HOP-62 NSCLC
[57] = test system: SK-MEL-2 melanoma
[58] = test system: BT-549 breast
[59] = test system: CAKI-1 renal

Measured: TGI

Cc1ccc2c(c1)CC1(Cc3c(C)cccc3C1=O)C2=O (centres undefined)
87.4 µM: [8]
> 100 µM: [1] | [2] | [3] | [4] | [5] | [6] | [7] | [9] | [10] | [11] | [12] | [13] | [14] | [15] | [16] | [17] | [18] | [19] | [20] | [21] | [22] | [23] | [24] | [25] | [26] | [27] | [29] | [30] | [31] | [32] | [33] | [34] | [35] | [36] | [37] | [38] | [39] | [40] | [41] | [42] | [43] | [44] | [45] | [46] | [47] | [48] | [49] | [50] | [51] | [52] | [53] | [54] | [55]
89.7 µM: [28]
71.9 µM: [56]

Nc1ncnc2c1ncn2C1OC(CO)C(O)C(O)C1O (centres undefined)
> 100 µM: [1] | [2] | [3] | [4] | [5] | [6] | [7] | [8] | [10] | [11] | [12] | [13] | [14] | [15] | [16] | [17] | [18] | [19] | [20] | [21] | [22] | [23] | [24] | [25] | [26] | [27] | [28] | [29] | [30] | [57] | [32] | [33] | [35] | [36] | [37] | [38] | [39] | [41] | [42] | [43] | [44] | [45] | [46] | [47] | [48] | [49] | [50] | [58] | [59] | [51] | [52] | [53] | [54] | [55] | [56]

NC(=S)N/N=C1/CCCC2CCCC[C@@H]12 (some centres undefined)
> 100 µM: [1] | [2] | [3] | [4] | [5] | [6] | [7] | [8] | [9] | [10] | [11] | [12] | [13] | [14] | [15] | [16] | [17] | [18] | [19] | [20] | [21] | [22] | [23] | [24] | [25] | [26] | [27] | [28] | [29] | [30] | [57] | [31] | [32] | [33] | [34] | [35] | [36] | [38] | [39] | [40] | [41] | [42] | [43] | [44] | [46] | [47] | [48] | [49] | [50] | [59] | [51] | [52] | [53] | [54] | [55] | [56]

Cc1ccc(N=Nc2ccc(N)cc2C)c(S(N)(=O)=O)c1
> 100 µM: [1] | [2] | [3] | [4] | [5] | [6] | [7] | [8] | [9] | [10] | [11] | [12] | [13] | [14] | [15] | [18] | [19] | [20] | [21] | [22] | [23] | [24] | [25] | [26] | [27] | [28] | [29] | [30] | [57] | [31] | [32] | [33] | [34] | [35] | [36] | [37] | [39] | [40] | [41] | [42] | [43] | [44] | [45] | [46] | [47] | [48] | [49] | [50] | [58] | [59] | [51] | [52] | [53] | [54] | [55] | [56]
99.5 µM: [16]
